From ChEMBL document CHEMBL3875145, “Highly potent anti-leishmanial derivatives of hederagenin, a triperpenoid from Sapindus saponaria L” (Eur J Med Chem, 2016)

How the values were obtained:
[1] = Cytotoxicity against dog DH82 cells assessed as decrease in cell viability after 48 hrs by MTT assay; assay type: toxicity, cell-based, Canis lupus familiaris; details: read-out: LD50
Leishmania infantum [2] = experiment: Antiparasitic activity against Leishmania infantum MHOM/BR/70/BH46 promastigotes infected in dog DH82 cells at 1000 uM after 48 hrs by ELISA method; assay type: functional; details: MHOM/BR/70/BH46, DH82, 48 h
Leishmania infantum [3] = experiment: Antiparasitic activity against Leishmania infantum MHOM/BR/70/BH46 promastigotes infected in dog DH82 cells after 48 hrs by ELISA method; assay type: functional, cell-based; details: MHOM/BR/70/BH46, DH82, 48 h
[4] = Cytotoxicity against African green monkey BGM cells assessed as decrease in cell viability after 48 hrs by MTT assay; assay type: toxicity, cell-based; details: chlorocebus aethiops, read-out: LD50
[5] = Selectivity index, ratio of LD50 for human HepG2 cells to IC50 for Leishmania infantum MHOM/BR/70/BH46 promastigotes infected in dog DH82 cells; assay type: toxicity, cell-based; details: read-out: Ratio LD50/IC50
[6] = Cytotoxicity against human HepG2 cells assessed as decrease in cell viability after 48 hrs by MTT assay; assay type: toxicity, cell-based; details: read-out: LD50
[7] = Selectivity index, ratio of LD50 for African green monkey BGM cells to IC50 for Leishmania infantum MHOM/BR/70/BH46 promastigotes infected in dog DH82 cells; assay type: toxicity, cell-based; details: read-out: Ratio LD50/IC50
[8] = Selectivity index, ratio of LD50 for dog DH82 cells to IC50 for Leishmania infantum MHOM/BR/70/BH46 promastigotes infected in dog DH82 cells; assay type: toxicity, cell-based; details: read-out: Ratio LD50/IC50

Structure (SMILES) | inhibition at 1000 µM (Leishmania infantum [2]) [%] | also measured
CC1(C)CC[C@]2(C(=O)NCc3cn(Cc4ccccc4[N+](=O)[O-])nn3)CC[C@]3(C)C(=CC[C@@H]4[C@@]5(C)CC[C@H](O)[C@@](C)(CO)[C@@H]5CC[C@]43C)[C@@H]2C1 | 93 | CC50 at 48 h [1]: 45 µM; IC50 (Leishmania infantum [3]): 2 µM; CC50 at 48 h [4]: 111 µM; selectivity ratio [5]: > 500; CC50 at 48 h [6]: > 1000 µM; selectivity ratio [7]: 55.5; selectivity ratio [8]: 22.5
CC1(C)CC[C@]2(C(=O)NCc3cn(Cc4cccc(Br)c4)nn3)CC[C@]3(C)C(=CC[C@@H]4[C@@]5(C)CC[C@H](O)[C@@](C)(CO)[C@@H]5CC[C@]43C)[C@@H]2C1 | 33.3 | –
COc1cc(COC(=O)[C@]23CCC(C)(C)C[C@H]2C2=CC[C@@H]4[C@@]5(C)CC[C@H](O)[C@@](C)(CO)[C@@H]5CC[C@@]4(C)[C@]2(C)CC3)cc(OC)c1 | 89 | IC50 (Leishmania infantum [3]): 110 µM
C#CCNC(=O)[C@]12CCC(C)(C)C[C@H]1C1=CC[C@@H]3[C@@]4(C)CC[C@H](O)[C@@](C)(CO)[C@@H]4CC[C@@]3(C)[C@]1(C)CC2 | 15 | –
CC1(C)CC[C@]2(C(=O)NCCN3CCOCC3)CC[C@]3(C)C(=CC[C@@H]4[C@@]5(C)CC[C@H](O)[C@@](C)(CO)[C@@H]5CC[C@]43C)[C@@H]2C1 | 7 | –
CC1(C)CC[C@]2(C(=O)NCc3cn(Cc4c(Cl)cccc4Cl)nn3)CC[C@]3(C)C(=CC[C@@H]4[C@@]5(C)CC[C@H](O)[C@@](C)(CO)[C@@H]5CC[C@]43C)[C@@H]2C1 | 41.7 | –
CC1(C)CC[C@]2(C(=O)NCc3ccccc3)CC[C@]3(C)C(=CC[C@@H]4[C@@]5(C)CC[C@H](O)[C@@](C)(CO)[C@@H]5CC[C@]43C)[C@@H]2C1 | 8.2 | –
COC(=O)CNC(=O)[C@]12CCC(C)(C)C[C@H]1C1=CC[C@@H]3[C@@]4(C)CC[C@H](O)[C@@](C)(CO)[C@@H]4CC[C@@]3(C)[C@]1(C)CC2 | 79.5 | CC50 at 48 h [1]: 32.5 µM; IC50 (Leishmania infantum [3]): 18 µM; CC50 at 48 h [4]: 20 µM; selectivity ratio [5]: 3.5; CC50 at 48 h [6]: 60.6 µM; selectivity ratio [7]: 1; selectivity ratio [8]: 1.8
CC1(C)CC[C@]2(C(=O)OCc3cccc(Cl)c3)CC[C@]3(C)C(=CC[C@@H]4[C@@]5(C)CC[C@H](O)[C@@](C)(CO)[C@@H]5CC[C@]43C)[C@@H]2C1 | 23 | –
Cc1ccccc1COC(=O)[C@]12CCC(C)(C)C[C@H]1C1=CC[C@@H]3[C@@]4(C)CC[C@H](O)[C@@](C)(CO)[C@@H]4CC[C@@]3(C)[C@]1(C)CC2 | 39 | –
CC1(C)CC[C@]2(C(=O)NC(Cc3c[nH]c4ccccc34)C(=O)O)CC[C@]3(C)C(=CC[C@@H]4[C@@]5(C)CC[C@H](O)[C@@](C)(CO)[C@@H]5CC[C@]43C)[C@@H]2C1 (some centres undefined) | 50 | –
CC1(C)CC[C@]2(C(=O)NCCN3CCCC3)CC[C@]3(C)C(=CC[C@@H]4[C@@]5(C)CC[C@H](O)[C@@](C)(CO)[C@@H]5CC[C@]43C)[C@@H]2C1 | 0 | –
CC1(C)CC[C@]2(C(=O)OCc3cn(Cc4ccc(Cl)cc4)nn3)CC[C@]3(C)C(=CC[C@@H]4[C@@]5(C)CC[C@H](O)[C@@](C)(CO)[C@@H]5CC[C@]43C)[C@@H]2C1 | 35 | –
CC1(C)CC[C@]2(C(=O)NCc3cn(Cc4ccccc4F)nn3)CC[C@]3(C)C(=CC[C@@H]4[C@@]5(C)CC[C@H](O)[C@@](C)(CO)[C@@H]5CC[C@]43C)[C@@H]2C1 | 31 | –
CC1(C)CC[C@]2(C(=O)OCc3cn(Cc4ccccc4)nn3)CC[C@]3(C)C(=CC[C@@H]4[C@@]5(C)CC[C@H](O)[C@@](C)(CO)[C@@H]5CC[C@]43C)[C@@H]2C1 | 23.5 | –
CC1(C)CC[C@]2(C(=O)OCc3cn(Cc4ccc(F)cc4)nn3)CC[C@]3(C)C(=CC[C@@H]4[C@@]5(C)CC[C@H](O)[C@@](C)(CO)[C@@H]5CC[C@]43C)[C@@H]2C1 | 33.3 | –
CC1(C)CC[C@]2(C(=O)NCc3cn(Cc4ccc(Br)cc4)nn3)CC[C@]3(C)C(=CC[C@@H]4[C@@]5(C)CC[C@H](O)[C@@](C)(CO)[C@@H]5CC[C@]43C)[C@@H]2C1 | 27 | –
CC1(C)CC[C@]2(C(=O)OCc3cn(Cc4c(Cl)cccc4Cl)nn3)CC[C@]3(C)C(=CC[C@@H]4[C@@]5(C)CC[C@H](O)[C@@](C)(CO)[C@@H]5CC[C@]43C)[C@@H]2C1 | 44.5 | –
CC1(C)CC[C@]2(C(=O)OCc3cn(Cc4cccc([N+](=O)[O-])c4)nn3)CC[C@]3(C)C(=CC[C@@H]4[C@@]5(C)CC[C@H](O)[C@@](C)(CO)[C@@H]5CC[C@]43C)[C@@H]2C1 | 26.3 | –
